Test results reported in paper PMC6429214, “Design, Synthesis and Biological Evaluation of Isoxazole-Based CK1 Inhibitors Modified with Chiral Pyrrolidine Scaffolds” (Molecules, 2019).

What was measured:
Test in all cases: 33PanQinase panel
Type in all cases: biochemical
MERTK = molecular target: T1, MERTK (Homo sapiens, UniProt Q12866); settings: read-out: Residual Activity (%)
T1 construct: purchased ProQinase
Description: (§1) Figure 5 Dendrogram representation of the selectivity profile of 29d at a concentration of 1 μM in a panel of 320 wild-type kinases (ProQinase, Freiburg, Germany). The residual kinase activity was determined compared to DMSO control. Images were generated using TREEspot Software Tool, DISCOVERX CORPORATION 2010.
(§2) Figure S1. X-ray crystal structure of intermediate compound 25d (ORTEP drawing with ellipsoids at 30% probability). CCDC 1589043 contains the supplementary crystallographic data for this paper. The data can be obtained free of charge from The Cambridge Crystallographic Data Centre via www.ccdc.cam.ac.uk/structures.
(§3) Table S1 Data collection, structure refinement and Ramachrandran plot results of protein crystallization of CK1δ in complex with compound 30a and 30b, respectively.
(§4) Root-mean-square deviations
(§5) Additionally allowed 2.6 2.2
(§6) Table S2. Selectivity profile of compound 29d. The inhibitor has been screened at a concentration of 1 µM over a panel of 320 wild-type protein kinases by ProQinase GmbH (Freiburg, Germany) using an activity-based radiometric 33PanQinase® assay. Results are presented as percentage of residual kinase activity relative to […]
(§7) control. The final DMSO concentration was 1 % in each reaction-mix. Classification of protein kinase families refers to Manning et al. (Manning, G.; Whyte, D. B.; Martinez, R.; Hunter, T.; Sudarsanam, S. The Protein Kinase Complement of the Human Genome. Science 2002, 298, 1912–1934): AGC = containing PKA, PKG, PKC families; […] = containing Cdk, MAPK, GSK3, CLK families; STE = homologs of yeast sterile 7, sterile 11, sterile 20 kinases; TK = tyrosine kinase; TKL = tyrosine kinase-like.
(§8) Kinase name Kinase family Residual Activity (%)

RPS6KA4 = molecular target: T2, RPS6KA4 (Homo sapiens, UniProt O75676); settings: RPS6KA4, 1 µM; read-out: Residual Activity (%)
T2 construct: purchased ProQinase
Description: as §1, §2, §3, §4, §5, §6, §7, §8

FLT3 = molecular target: T3, FLT3 (Homo sapiens, UniProt P36888); settings: FLT3, 1 µM; read-out: Residual Activity (%)
T3 construct: purchased ProQinase
Description: as §1, §2, §3, §4, §5, §6, §7, §8

BLK = molecular target: T4, BLK (Homo sapiens, UniProt P51451); settings: read-out: Residual Activity (%)
T4 construct: purchased ProQinase
Description: as §1, §2, §3, §4, §5, §6, §7, §8

VEGF-R2 = molecular target: T5, VEGF-R2 (Homo sapiens, UniProt P35968); settings: VEGF-R2, 1 µM; read-out: Residual Activity (%)
T5 construct: purchased ProQinase
Description: as §1, §2, §3, §4, §5, §6, §7, §8

ARK5 = molecular target: T6, ARK5 (Homo sapiens, UniProt O60285); settings: ARK5, 1 µM; read-out: Residual Activity (%)
T6 construct: purchased ProQinase
Description: as §1, §2, §3, §4, §5, §6, §7, §8

ROCK2 = molecular target: T7, ROCK2 (Homo sapiens, UniProt O75116); settings: ROCK2, 1 µM; read-out: Residual Activity (%)
T7 construct: purchased ProQinase
Description: as §1, §2, §3, §4, §5, §6, §7, §8

DYRK4 = molecular target: T8, DYRK4 (Homo sapiens, UniProt Q9NR20); settings: DYRK4, 1 µM; read-out: Residual Activity (%)
T8 construct: purchased ProQinase
Description: as §1, §2, §3, §4, §5, §6, §7, §8

PLK3 = molecular target: T9, PLK3 (Homo sapiens, UniProt Q9H4B4); settings: PLK3, 1 µM; read-out: Residual Activity (%)
T9 construct: purchased ProQinase
Description: as §1, §2, §3, §4, §5, §6, §7, §8

TRK-A = molecular target: T10, TRK-A (Homo sapiens, UniProt P04629); settings: read-out: Residual Activity (%)
T10 construct: purchased ProQinase
Description: as §1, §2, §3, §4, §5, §6, §7, §8

SAK = molecular target: T11, SAK (Homo sapiens, UniProt O00444); settings: read-out: Residual Activity (%)
T11 construct: purchased ProQinase
T11 sequence (O00444 whole entry): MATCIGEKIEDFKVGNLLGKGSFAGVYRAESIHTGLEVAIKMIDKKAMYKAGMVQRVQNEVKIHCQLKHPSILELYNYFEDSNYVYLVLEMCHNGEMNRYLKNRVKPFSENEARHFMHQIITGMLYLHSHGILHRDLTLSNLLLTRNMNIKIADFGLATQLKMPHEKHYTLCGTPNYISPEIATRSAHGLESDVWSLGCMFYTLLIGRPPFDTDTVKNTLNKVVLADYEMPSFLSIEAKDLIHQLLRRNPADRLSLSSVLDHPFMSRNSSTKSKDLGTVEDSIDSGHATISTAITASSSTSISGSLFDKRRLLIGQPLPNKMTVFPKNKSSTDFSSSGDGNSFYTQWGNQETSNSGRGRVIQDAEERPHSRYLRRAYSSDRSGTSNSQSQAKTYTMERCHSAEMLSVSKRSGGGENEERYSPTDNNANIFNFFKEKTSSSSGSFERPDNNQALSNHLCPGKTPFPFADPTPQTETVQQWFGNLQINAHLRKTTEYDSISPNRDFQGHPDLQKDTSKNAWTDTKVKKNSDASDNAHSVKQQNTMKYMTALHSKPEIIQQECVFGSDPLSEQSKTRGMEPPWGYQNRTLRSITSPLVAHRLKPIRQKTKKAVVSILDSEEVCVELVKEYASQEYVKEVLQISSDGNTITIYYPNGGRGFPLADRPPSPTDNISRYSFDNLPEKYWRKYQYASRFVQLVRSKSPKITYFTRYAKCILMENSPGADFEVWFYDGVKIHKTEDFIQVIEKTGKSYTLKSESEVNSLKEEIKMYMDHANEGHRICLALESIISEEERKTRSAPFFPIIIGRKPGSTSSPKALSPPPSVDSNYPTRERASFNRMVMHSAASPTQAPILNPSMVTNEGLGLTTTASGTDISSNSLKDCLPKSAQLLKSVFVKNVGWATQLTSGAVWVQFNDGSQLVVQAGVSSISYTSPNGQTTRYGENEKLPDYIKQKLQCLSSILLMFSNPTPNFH
Description: as §1, §2, §3, §4, §5, §6, §7, §8

YES = molecular target: T12, YES (Homo sapiens, UniProt P07947); settings: read-out: Residual Activity (%)
T12 construct: purchased ProQinase
Description: as §1, §2, §3, §4, §5, §6, §7, §8

CK1-gamma3 = molecular target: T13, CK1-gamma3 (Homo sapiens, UniProt Q9Y6M4); settings: CK1-gamma3, 1 µM; read-out: Residual Activity (%)
T13 construct: purchased ProQinase
Description: as §1, §2, §3, §4, §5, §6, §7, §8

CDK19/CycC = molecular target: T14, CDK19/CycC (Homo sapiens, UniProt Q9BWU1); settings: read-out: Residual Activity (%)
T14 construct: purchased ProQinase
Description: as §1, §2, §3, §4, §5, §6, §7, §8

CAMK2A = molecular target: T15, CAMK2A (Homo sapiens, UniProt Q9UQM7); settings: read-out: Residual Activity (%)
T15 construct: purchased ProQinase
T15 sequence (Q9UQM7 whole entry): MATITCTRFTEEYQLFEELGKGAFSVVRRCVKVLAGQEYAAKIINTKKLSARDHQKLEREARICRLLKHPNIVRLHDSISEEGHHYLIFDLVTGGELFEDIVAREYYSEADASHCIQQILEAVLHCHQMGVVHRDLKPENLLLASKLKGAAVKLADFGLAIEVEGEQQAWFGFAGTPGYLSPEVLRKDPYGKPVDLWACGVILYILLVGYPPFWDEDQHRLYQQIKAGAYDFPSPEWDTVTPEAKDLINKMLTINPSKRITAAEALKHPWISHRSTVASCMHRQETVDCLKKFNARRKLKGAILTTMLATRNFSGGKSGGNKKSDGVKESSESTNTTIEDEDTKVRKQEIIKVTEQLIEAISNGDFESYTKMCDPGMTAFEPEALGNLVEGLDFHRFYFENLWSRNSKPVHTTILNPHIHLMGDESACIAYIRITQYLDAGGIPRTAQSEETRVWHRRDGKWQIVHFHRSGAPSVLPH
Description: as §1, §2, §3, §4, §5, §6, §7, §8

NEK9 = molecular target: T16, NEK9 (Homo sapiens, UniProt Q8TD19); settings: NEK9, 1 µM; read-out: Residual Activity (%)
T16 construct: purchased ProQinase
Description: as §1, §2, §3, §4, §5, §6, §7, §8

STK33 = molecular target: T17, STK33 (Homo sapiens, UniProt Q9BYT3); settings: STK33, 1 µM; read-out: Residual Activity (%)
T17 construct: purchased ProQinase
Description: as §1, §2, §3, §4, §5, §6, §7, §8

CAMK2B = molecular target: T18, CAMK2B (Homo sapiens, UniProt Q13554); settings: read-out: Residual Activity (%)
T18 construct: purchased ProQinase
Description: as §1, §2, §3, §4, §5, §6, §7, §8

BUB1B = molecular target: T19, BUB1B (Homo sapiens, UniProt O60566); settings: read-out: Residual Activity (%)
T19 construct: purchased ProQinase
T19 sequence (O60566 whole entry): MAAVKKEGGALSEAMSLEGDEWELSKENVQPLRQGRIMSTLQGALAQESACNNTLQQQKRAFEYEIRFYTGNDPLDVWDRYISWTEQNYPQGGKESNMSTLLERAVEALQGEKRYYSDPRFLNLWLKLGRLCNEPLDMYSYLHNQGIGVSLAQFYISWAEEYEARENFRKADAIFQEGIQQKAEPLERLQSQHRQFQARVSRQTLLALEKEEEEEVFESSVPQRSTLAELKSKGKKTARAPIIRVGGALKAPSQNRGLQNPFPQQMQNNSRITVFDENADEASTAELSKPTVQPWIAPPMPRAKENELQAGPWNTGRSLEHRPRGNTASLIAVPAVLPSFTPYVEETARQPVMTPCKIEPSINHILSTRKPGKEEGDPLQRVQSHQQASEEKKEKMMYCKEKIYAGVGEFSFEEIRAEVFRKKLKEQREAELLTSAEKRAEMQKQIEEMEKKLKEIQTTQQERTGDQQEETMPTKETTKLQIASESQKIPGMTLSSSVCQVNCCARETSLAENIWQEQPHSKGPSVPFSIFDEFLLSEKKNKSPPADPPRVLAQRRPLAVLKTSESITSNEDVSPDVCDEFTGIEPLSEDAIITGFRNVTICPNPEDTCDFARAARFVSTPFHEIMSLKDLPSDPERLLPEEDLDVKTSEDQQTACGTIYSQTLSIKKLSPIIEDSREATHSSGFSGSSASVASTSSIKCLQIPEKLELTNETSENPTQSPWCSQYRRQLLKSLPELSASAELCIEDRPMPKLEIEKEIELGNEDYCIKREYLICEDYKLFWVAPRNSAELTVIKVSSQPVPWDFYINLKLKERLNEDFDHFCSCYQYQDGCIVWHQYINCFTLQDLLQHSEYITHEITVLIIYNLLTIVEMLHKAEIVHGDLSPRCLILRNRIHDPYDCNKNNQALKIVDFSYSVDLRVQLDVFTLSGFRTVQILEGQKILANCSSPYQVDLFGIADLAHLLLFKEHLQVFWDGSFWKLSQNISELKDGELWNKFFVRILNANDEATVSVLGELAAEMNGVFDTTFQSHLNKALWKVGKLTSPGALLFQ
Description: as §1, §2, §3, §4, §5, §6, §7, §8

PASK = molecular target: T20, PASK (Homo sapiens, UniProt Q96RG2); settings: read-out: Residual Activity (%)
T20 construct: purchased ProQinase
Description: as §1, §2, §3, §4, §5, §6, §7, §8

MARK3 = molecular target: T21, MARK3 (Homo sapiens, UniProt P27448); settings: MARK3, 1 µM; read-out: Residual Activity (%)
T21 construct: purchased ProQinase
Description: as §1, §2, §3, §4, §5, §6, §7, §8

S6K-beta = molecular target: T22, S6K-beta (Homo sapiens, UniProt Q9UBS0); settings: read-out: Residual Activity (%)
T22 construct: purchased ProQinase
T22 sequence (Q9UBS0 whole entry): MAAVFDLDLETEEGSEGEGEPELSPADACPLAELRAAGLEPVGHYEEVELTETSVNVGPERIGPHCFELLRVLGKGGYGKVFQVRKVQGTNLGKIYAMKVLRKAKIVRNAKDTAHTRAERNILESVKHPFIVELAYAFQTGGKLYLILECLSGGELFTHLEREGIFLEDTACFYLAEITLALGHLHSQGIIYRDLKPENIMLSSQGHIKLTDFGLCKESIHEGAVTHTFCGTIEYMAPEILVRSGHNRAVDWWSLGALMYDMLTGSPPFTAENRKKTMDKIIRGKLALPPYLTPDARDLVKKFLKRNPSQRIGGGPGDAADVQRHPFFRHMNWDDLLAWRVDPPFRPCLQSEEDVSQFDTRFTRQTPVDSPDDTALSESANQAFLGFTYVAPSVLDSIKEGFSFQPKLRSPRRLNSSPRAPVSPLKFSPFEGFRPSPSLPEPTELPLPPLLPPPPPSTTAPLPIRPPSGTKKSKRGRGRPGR
Description: as §1, §2, §3, §4, §5, §6, §7, §8

TRK-B = molecular target: T23, TRK-B (Homo sapiens, UniProt Q16620); settings: read-out: Residual Activity (%)
T23 construct: purchased ProQinase
T23 sequence (Q16620 32-822): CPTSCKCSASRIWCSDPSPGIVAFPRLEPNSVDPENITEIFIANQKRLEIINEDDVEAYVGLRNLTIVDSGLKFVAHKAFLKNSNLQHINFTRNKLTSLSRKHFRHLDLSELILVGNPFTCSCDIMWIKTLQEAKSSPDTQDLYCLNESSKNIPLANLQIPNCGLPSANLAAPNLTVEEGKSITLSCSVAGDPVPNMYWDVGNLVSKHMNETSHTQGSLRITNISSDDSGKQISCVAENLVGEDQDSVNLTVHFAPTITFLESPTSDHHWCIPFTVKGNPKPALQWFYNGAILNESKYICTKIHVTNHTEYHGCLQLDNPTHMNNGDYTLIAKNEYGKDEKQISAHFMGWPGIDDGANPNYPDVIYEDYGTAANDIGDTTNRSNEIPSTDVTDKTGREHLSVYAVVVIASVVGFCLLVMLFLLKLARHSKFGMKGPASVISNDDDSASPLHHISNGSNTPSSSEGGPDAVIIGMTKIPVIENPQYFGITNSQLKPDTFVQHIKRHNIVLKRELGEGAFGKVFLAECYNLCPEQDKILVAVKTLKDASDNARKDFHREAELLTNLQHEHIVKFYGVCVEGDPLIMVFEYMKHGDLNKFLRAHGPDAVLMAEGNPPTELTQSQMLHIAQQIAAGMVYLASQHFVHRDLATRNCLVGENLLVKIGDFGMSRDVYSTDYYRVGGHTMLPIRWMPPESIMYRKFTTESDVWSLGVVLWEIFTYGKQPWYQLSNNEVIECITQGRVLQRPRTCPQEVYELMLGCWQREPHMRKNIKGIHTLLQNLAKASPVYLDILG
Description: as §1, §2, §3, §4, §5, §6, §7, §8

CDK9/CycK = molecular target: T24, CDK9/CycK (Homo sapiens, UniProt P50750); settings: read-out: Residual Activity (%)
T24 construct: purchased ProQinase
Description: as §1, §2, §3, §4, §5, §6, §7, §8

EPHB2 = molecular target: T25, EPHB2 (Homo sapiens, UniProt P29323); settings: EPHB2, 1 µM; read-out: Residual Activity (%)
T25 construct: purchased ProQinase
Description: as §1, §2, §3, §4, §5, §6, §7, §8

TAOK2 = molecular target: T26, TAOK2 (Homo sapiens, UniProt Q9UL54); settings: TAOK2, 1 µM; read-out: Residual Activity (%)
T26 construct: purchased ProQinase
Description: as §1, §2, §3, §4, §5, §6, §7, §8

MEK2 = molecular target: T27, MEK2 (Homo sapiens, UniProt P36507); settings: MEK2, 1 µM; read-out: Residual Activity (%)
T27 construct: purchased ProQinase
Description: as §1, §2, §3, §4, §5, §6, §7, §8

GRK5 = molecular target: T28, GRK5 (Homo sapiens, UniProt P34947); settings: GRK5, 1 µM; read-out: Residual Activity (%)
T28 construct: purchased ProQinase
Description: as §1, §2, §3, §4, §5, §6, §7, §8

T1 sequence (Q12866 21-999): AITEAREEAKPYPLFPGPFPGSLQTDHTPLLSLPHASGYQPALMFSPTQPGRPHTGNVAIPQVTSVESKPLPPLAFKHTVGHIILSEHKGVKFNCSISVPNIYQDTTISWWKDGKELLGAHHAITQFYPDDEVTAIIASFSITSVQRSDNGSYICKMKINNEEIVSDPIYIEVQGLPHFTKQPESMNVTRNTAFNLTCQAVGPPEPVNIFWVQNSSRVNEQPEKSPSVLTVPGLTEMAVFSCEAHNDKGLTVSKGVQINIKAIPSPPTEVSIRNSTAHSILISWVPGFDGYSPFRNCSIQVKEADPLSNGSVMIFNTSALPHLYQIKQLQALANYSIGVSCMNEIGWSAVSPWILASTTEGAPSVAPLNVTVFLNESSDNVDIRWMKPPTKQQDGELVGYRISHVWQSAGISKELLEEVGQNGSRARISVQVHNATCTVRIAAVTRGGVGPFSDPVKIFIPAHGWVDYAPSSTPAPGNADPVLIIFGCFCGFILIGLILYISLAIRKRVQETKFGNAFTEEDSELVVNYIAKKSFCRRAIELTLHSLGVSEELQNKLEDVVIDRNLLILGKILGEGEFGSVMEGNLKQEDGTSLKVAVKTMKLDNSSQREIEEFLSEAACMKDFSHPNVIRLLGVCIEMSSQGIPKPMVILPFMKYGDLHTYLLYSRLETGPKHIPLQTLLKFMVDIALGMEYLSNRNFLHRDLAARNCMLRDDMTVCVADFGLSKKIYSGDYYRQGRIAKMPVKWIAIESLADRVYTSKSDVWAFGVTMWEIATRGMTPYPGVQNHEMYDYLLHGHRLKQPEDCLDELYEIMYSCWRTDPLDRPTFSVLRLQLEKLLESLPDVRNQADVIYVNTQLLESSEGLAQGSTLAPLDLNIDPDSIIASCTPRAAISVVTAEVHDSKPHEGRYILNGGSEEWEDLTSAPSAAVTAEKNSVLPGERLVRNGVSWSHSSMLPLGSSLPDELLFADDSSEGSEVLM

COc1ccc(-c2cc(C(=O)Nc3cc(-c4c(-c5ccc(F)cc5)noc4C(C)C)ccn3)n(CC3NCC(O)C3O)c2)cc1 (stereo not shown) [29d]
remaining activity at 1 µM (MERTK): 76%
remaining activity at 1 µM (RPS6KA4): 105%
remaining activity at 1 µM (FLT3): 87%
remaining activity at 1 µM (BLK): 110%
remaining activity at 1 µM (VEGF-R2): 110%
remaining activity at 1 µM (ARK5): 100%
remaining activity at 1 µM (ROCK2): 92%
remaining activity at 1 µM (DYRK4): 80%
remaining activity at 1 µM (PLK3): 112%
remaining activity at 1 µM (TRK-A): 116%
remaining activity at 1 µM (SAK): 92%
remaining activity at 1 µM (YES): 126%
remaining activity at 1 µM (CK1-gamma3): 74%
remaining activity at 1 µM (CDK19/CycC): 84%
remaining activity at 1 µM (CAMK2A): 87%
remaining activity at 1 µM (NEK9): 91%
remaining activity at 1 µM (STK33): 84%
remaining activity at 1 µM (CAMK2B): 102%
remaining activity at 1 µM (BUB1B): 90%
remaining activity at 1 µM (PASK): 99%
remaining activity at 1 µM (MARK3): 96%
remaining activity at 1 µM (S6K-beta): 96%
remaining activity at 1 µM (TRK-B): 120%
remaining activity at 1 µM (CDK9/CycK): 97%
remaining activity at 1 µM (EPHB2): 88%
remaining activity at 1 µM (TAOK2): 105%
remaining activity at 1 µM (MEK2): 108%
remaining activity at 1 µM (GRK5): 97%
